This assay deals with T1, Na+/K+-ATPase α1,2,3 subunit.
T1 construct: gene ATP1A1; Na+/K+-ATPase α1,2,3 subunit of porcine cortex (Sigma)
The experiment in a line: ATPase activity, malachite green Pi release, […] min pre-incubation. Format: biochemical, Sus scrofa.

`CO[C@H]1[C@@H](O)C[C@H](O[C@H]2[C@@H](O)C[C@H](O[C@H]3[C@@H](O)C[C@H](O[C@H]4CC[C@@]5(C)[C@H](CC[C@@H]6[C@@H]5C[C@@H](O)[C@]5(C)[C@@H](C7=CC(=O)OC7)CC[C@]65O)C4)O[C@@H]3C)O[C@@H]2C)O[C@@H]1C` [β-methyldigoxin] registered an IC50 of 16.7 µM.

The values above are taken from article PMC5355295, “A new semisynthetic cardenolide analog 3β-[2-(1-amantadine)- 1-on-ethylamine]-digitoxigenin (AMANTADIG) affects G2/M cell cycle arrest and miRNA expression profiles and enhances proapoptotic survivin-2B expression in renal cell carcinoma cell lines” (Oncotarget, 2017).
